Data published in patent US20120121508A1, “RADIOLABELED CGRP ANTAGONISTS” (Merck Sharp & Dohme Corp., priority 2009, published 2012).
Where “and” joins values, the source holds several entries; their conditions need not be identical. Equal entries are not always repeated.

How the values were obtained:
[1] = target: T1, human CGRP receptor (CL receptor/RAMP1) (Homo sapiens, UniProt O60894+Q16602); experiment: Recombinant receptor binding assay vs [^125I]CGRP
T1 construct: expressed in transfected cells
Protocol: RECOMBINANT RECEPTOR: Human CL receptor (Genbank accession number L76380) was subcloned into the expression vector pIREShyg2 (BD Biosciences Clontech) as a 5′NheI and 3′ PmeI fragment. Human RAMP1 (Genbank accession number AJ001014) was subcloned into the expression vector pIRESpuro2 (BD Biosciences Clontech) as a 5′NheI and 3′NotI fragment. HEK 293 cells (human embryonic kidney cells; ATCC #CRL-1573) were cultured in DMEM with 4.5 g/L glucose, 1 mM sodium pyruvate and 2 mM glutamine supplemented with 10% fetal bovine serum (FBS), 100 units/mL penicillin and 100 μg/mL streptomycin, and maintained at 37° C. and 95% humidity. Cells were subcultured by treatment with 0.25% trypsin with 0.1% EDTA in HBSS. Stable cell line generation was accomplished by co-transfecting 10 μg of DNA with 30 μg Lipofectamine 2000 (Invitrogen) in 75 cm^2 flasks. CL receptor and RAMP1 expression constructs were co-transfected in equal amounts. Twenty-four hours after transfection the cells were diluted and selective medium (growth medium+300 μg/mL hygromycin and 1 μg/mL puromycin) was added the following day. […]
(§1) The octanol/water partition coefficient (Log P) of the compound of Example 1 was determined by partitioning the compound between octanol and phosphate buffer at pH 7.4 and measuring the concentration of the compound in each layer by LC-MS/MS. […]

[2] = target: T1, human CGRP receptor (CL receptor/RAMP1); experiment: Recombinant receptor cAMP functional assay; assay type: cell-based; conditions: in the presence of 50% human serum
Protocol: RECOMBINANT RECEPTOR: Human CL receptor (Genbank accession number L76380) was subcloned into the expression vector pIREShyg2 (BD Biosciences Clontech) as a 5′NheI and 3′ PmeI fragment. Human RAMP1 (Genbank accession number AJ001014) was subcloned into the expression vector pIRESpuro2 (BD Biosciences Clontech) as a 5′NheI and 3′NotI fragment. HEK 293 cells (human embryonic kidney cells; ATCC #CRL-1573) were cultured in DMEM with 4.5 g/L glucose, 1 mM sodium pyruvate and 2 mM glutamine supplemented with 10% fetal bovine serum (FBS), 100 units/mL penicillin and 100 μg/mL streptomycin, and maintained at 37° C. and 95% humidity. Cells were subcultured by treatment with 0.25% trypsin with 0.1% EDTA in HBSS. […]
RECOMBINANT RECEPTOR FUNCTIONAL ASSAY: Cells were plated in complete growth medium at 85,000 cells/well in 96-well poly-D-lysine coated plates (Corning) and cultured for ˜19 h before assay. […] Dose response curves were plotted and IC50 values determined from a 4-parameter logistic fit as defined by the equation y=((a−d)/(1+(x/c)^b)+d, where y=response, x=dose, a=max response, d=min response, c=inflection point and b=slope.
as §1

[3] = target: adrenomedullin 2 receptor, CLR-RAMP3 (Homo sapiens, UniProt O60896+Q16602); experiment: Adrenomedullin 2 receptor binding (selectivity)
Protocol: (§2) The octanol/water partition coefficient (Log P) of the compound of Example 1 was determined by partitioning the compound between octanol and phosphate buffer at pH 7.4 and measuring the concentration of the compound in each layer by LC-MS/MS. […] The compound of Example 1 was tested in the receptor binding and functional cell-based assays carried out in the presence and absence of human serum.

[4] = target: human AMY1 receptor (CTR/RAMP1) (Homo sapiens, UniProt O60894+P30988); experiment: Amylin 1 receptor binding
Protocol: (§3) The compound of Example 1 was evaluated against the related amylin 1 (AMY1; CTR/RAMP1) and amylin 3 (AMY3; CTR/RAMP3) receptors. […] Although the compound of Example 1 binds with high affinity to the related AMY1 receptor, this is not anticipated to negatively impact the utility of this molecule as a suitable PET tracer. […] Since the methods used to quantify CGRP receptor occupancy rely primarily on the cerebellar region, the affinity of the compound of Example 1 for AMY1 receptor should not interfere with the use of the PET tracer to accurately determine CGRP receptor occupancy.

[5] = target: T2, human AMY3 receptor (CTR/RAMP3) (Homo sapiens, UniProt O60896+P30988); experiment: Amylin 3 receptor binding
T2 sequence (P30988 25-474): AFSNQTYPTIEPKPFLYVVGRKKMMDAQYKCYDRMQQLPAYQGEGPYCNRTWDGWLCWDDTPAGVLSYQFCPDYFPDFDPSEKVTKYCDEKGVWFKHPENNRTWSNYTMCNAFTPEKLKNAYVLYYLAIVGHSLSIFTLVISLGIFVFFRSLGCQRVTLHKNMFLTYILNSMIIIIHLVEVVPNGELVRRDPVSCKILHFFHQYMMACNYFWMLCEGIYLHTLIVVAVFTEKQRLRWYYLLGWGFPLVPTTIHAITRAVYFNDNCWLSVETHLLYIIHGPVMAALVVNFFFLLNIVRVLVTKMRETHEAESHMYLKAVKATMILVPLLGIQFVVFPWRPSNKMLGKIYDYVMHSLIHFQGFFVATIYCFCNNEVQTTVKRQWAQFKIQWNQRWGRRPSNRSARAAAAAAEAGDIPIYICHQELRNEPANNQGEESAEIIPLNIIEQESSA
T2 sequence (O60896 24-148): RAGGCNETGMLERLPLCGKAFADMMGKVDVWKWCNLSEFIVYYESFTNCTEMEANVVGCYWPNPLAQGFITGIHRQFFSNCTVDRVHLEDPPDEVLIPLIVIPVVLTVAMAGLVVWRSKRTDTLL
Protocol: as §3

[6] = Octanol/water partition coefficient (Log P); assay type: physicochemical; conditions: octanol / phosphate buffer pH 7.4, LC-MS/MS
Protocol: as §2

human P-glycoprotein = target: T3, human P-glycoprotein (Homo sapiens, UniProt P08183); experiment: Bidirectional transport across LLC-PK1 monolayers, human P-gp; assay type: in vitro ADME
T3 construct: expressed in transfected cells; host or cells: LLC-PK1
Protocol: (§4) The bidirectional transport of the compound of Example 1 was evaluated across mono-layers of LLC-PK1 cells over-expressing human P-glycoprotein (Ohe et al., 2003).

[7] = target: T4, human P-glycoprotein (P-gp) (Homo sapiens, UniProt P08183); experiment: as above; assay type: in vitro ADME; conditions: LLC-PK1, human P-gp, read-out: B−A/A−B ratio
T4 construct: expressed in transfected cells; host or cells: LLC-PK1
Protocol: as §4

rat P-gp = experiment: Bidirectional transport, rat P-gp; assay type: in vitro ADME
Protocol: [The source words this procedure for another species and reports this species under the same test.] as §4

[8] = test system: African green monkey P-gp; experiment: Bidirectional transport, African green monkey P-gp; assay type: in vitro ADME
[9] = Passive permeability (Papp); assay type: in vitro ADME; conditions: pig, LLC-PK1, read-out: average apparent permeability coefficient (Papp)
Protocol: as §4

CGRP receptor = experiment: PET CGRP receptor occupancy study in rhesus monkey brain; assay type: in vivo; conditions: IV bolus plus constant infusion, Hill equation fit, ±SE
Protocol: Baseline PET scans in rhesus monkey have confirmed the uptake and expected regional distribution of the PET tracer of [^11C]-Example 1 in the brain. […] In vivo occupancy studies were carried out with the compound of Example 1 to examine the utility of the PET tracer of [^11C]-Example 1 to establish a drug plasma level/CGRP receptor occupancy relationship. To establish steady plasma levels of drug, the compound of Example 1 was administered as an IV bolus plus constant infusion starting 60 minutes before the PET tracer of [^11C]-Example 1 injection; drug infusion was continued for the duration of the scan. Dynamic PET studies were acquired for 120-min following the PET tracer of [^11C]-Example 1 IV bolus administration. CGRP receptor availability was estimated using data-driven methods to describe the PET tracer of [^11C]-Example 1 plasma-brain kinetics. For each study, the PET tracer of [^11C]-Example 1 plasma concentration was obtained from the measurement of total radioactivity in arterial plasma with correction for the fraction of intact tracer as determined by HPLC analysis.
The absence of a reference region (devoid of CGRP receptor) requires the application of tracer kinetic modeling techniques using the PET tracer of [^11C]-Example 1 arterial plasma concentration in order to accurately quantify CGRP receptor occupancy in rhesus monkey. […]

T4 sequence (P08183 whole entry): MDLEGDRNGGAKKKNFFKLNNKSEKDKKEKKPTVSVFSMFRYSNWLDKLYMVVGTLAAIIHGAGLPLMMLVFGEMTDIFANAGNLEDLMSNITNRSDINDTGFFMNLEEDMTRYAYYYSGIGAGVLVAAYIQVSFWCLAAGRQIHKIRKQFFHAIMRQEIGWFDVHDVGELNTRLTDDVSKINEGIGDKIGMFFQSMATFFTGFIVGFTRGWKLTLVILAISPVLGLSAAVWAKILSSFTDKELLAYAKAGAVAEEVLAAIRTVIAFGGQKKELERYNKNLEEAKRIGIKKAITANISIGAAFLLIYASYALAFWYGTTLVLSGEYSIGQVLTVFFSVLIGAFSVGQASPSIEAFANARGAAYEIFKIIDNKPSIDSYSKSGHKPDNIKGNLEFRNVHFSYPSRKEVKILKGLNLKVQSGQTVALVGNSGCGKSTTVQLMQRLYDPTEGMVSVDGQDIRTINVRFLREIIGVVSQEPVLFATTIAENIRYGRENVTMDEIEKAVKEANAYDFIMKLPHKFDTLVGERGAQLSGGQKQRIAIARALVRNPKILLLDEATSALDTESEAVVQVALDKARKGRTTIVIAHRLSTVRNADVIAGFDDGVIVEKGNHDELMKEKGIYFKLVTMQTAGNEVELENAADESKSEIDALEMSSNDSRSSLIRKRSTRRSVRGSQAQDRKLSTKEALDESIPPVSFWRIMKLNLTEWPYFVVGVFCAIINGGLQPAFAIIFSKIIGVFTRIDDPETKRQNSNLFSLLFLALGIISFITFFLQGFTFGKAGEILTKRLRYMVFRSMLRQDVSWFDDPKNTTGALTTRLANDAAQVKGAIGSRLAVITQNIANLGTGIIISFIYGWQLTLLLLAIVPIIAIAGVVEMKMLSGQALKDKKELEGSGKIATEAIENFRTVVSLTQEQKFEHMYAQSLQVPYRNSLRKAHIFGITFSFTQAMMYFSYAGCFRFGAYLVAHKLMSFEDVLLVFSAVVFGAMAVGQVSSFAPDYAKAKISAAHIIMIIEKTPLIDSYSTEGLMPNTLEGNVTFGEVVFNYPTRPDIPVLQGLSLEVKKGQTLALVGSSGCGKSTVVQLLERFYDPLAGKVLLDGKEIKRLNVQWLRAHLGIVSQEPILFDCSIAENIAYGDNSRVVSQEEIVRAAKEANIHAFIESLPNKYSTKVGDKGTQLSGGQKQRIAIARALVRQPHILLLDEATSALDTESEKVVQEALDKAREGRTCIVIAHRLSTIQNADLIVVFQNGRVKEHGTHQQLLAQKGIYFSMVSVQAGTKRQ
T3 sequence (P08183 whole entry): as above
T1 sequence (Q16602 23-461): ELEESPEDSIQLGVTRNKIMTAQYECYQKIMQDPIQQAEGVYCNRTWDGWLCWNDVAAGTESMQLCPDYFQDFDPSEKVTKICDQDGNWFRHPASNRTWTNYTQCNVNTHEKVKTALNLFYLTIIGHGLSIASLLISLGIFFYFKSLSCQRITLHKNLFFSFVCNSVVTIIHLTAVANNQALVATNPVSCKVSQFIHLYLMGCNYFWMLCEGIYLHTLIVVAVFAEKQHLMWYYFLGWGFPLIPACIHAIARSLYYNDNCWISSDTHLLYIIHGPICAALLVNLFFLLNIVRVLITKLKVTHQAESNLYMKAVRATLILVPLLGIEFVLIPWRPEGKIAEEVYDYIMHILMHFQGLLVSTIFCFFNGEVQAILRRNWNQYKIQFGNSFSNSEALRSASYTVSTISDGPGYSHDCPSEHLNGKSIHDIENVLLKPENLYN
T1 sequence (O60894 27-148): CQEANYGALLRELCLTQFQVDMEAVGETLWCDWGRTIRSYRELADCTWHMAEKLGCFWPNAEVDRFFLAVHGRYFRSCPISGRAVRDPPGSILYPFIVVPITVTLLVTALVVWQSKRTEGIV
human AMY1 receptor (CTR/RAMP1), sequence (O60894 27-148, one chain of several): as the sequence (O60894 27-148) above
adrenomedullin 2 receptor, CLR-RAMP3, sequence (Q16602 23-461, one chain of several): as the sequence (Q16602 23-461) above

- Ki [1]: 0.039 nM
- IC50 [2]: 0.21 nM
- Ki [3]: 211 nM
- Ki [4]: 0.6 nM
- Ki [5]: 212 nM
- logP [6]: 3.38
- P-gp substrate status (human P-glycoprotein; human P-gp, 5 μM): not a substrate
- P-gp substrate status (human P-glycoprotein; human P-gp, 1, 0.5 and 0.1 μM): weak substrate
- efflux ratio at 0.1 μM ([7]; 0.1 μM): 3.5
- efflux ratio at 0.5 μM ([7]; 0.5 μM): 2.9
- efflux ratio at 1 μM ([7]; 1 μM): 3
- efflux ratio at 5 μM ([7]; 5 μM): 1.7
- P-gp substrate status (rat P-gp; 5 μM): borderline substrate
- efflux ratio at 5 μM (rat P-gp; LLC-PK1, read-out: B−A/A−B ratio): 3.1
- P-gp substrate status ([8]; African green monkey P-gp, 1, 0.5 and 0.1 μM): weak substrate
- efflux ratio at 0.1 μM ([8]; LLC-PK1, African green monkey P-gp, 0.1 μM, read-out: B−A/A−B ratio): 5.4
- efflux ratio at 0.5 μM ([8]; LLC-PK1, African green monkey P-gp, 0.5 μM, read-out: B−A/A−B ratio): 4.1
- efflux ratio at 1 μM ([8]; LLC-PK1, African green monkey P-gp, 1 μM, read-out: B−A/A−B ratio): 3.9
- Papp [9]: 26 ×10⁻⁶ cm/s
SMILES: CN1C[C@@](C)(c2cc(F)cc(F)c2)N(CC(=O)Nc2ccc3c(c2)C[C@@]2(C3)C(=O)Nc3ncccc32)C(=O)C12CCCC2 [Example 1, 2-[(8R)-8-(3,5-Difluorophenyl)-6,8-dimethyl-10-oxo-6,9-diazaspiro[4.5]dec-9-yl]-N-[(2R)-2′-oxo-1,1′,2′,3-tetrahydrospiro[indene-2,3′-pyrrolo[2,3-b]pyridin]-5-yl]acetamide]
- Occ50: plasma level for 50% CGRP receptor occupancy (CGRP receptor): ~11 nM and 11 ± 3 nM
